Experimental data from US20230174582A1, “VIPR2 ANTAGONIST PEPTIDE” (ICHIMARU PHARCOS CO., LTD, priority 2020, published 2023).
“Also recorded” adds a separate entry of the source. Starred links: 1 amine or outer side, 2 acyl side, 3 side chain; linkers in the order of their positions; H or OH if unused. Positions of bridges follow the written chain, without caps; N, C: chain ends. Non-standard residues stand in square brackets, D forms with d. Residues, ends and D or L forms follow the SMILES beside them. TBMB = c1c(C[*:1])cc(C[*:3])cc1C[*:2]; mXylylene = c1cc(C[*:1])cc(C[*:2])c1; NMeY = CN[C@@H](Cc1ccc(O)cc1)C(=O)O; Dap = NC[C@H](N)C(=O)O; Mpa = O=C(O)CCS; Sar = CNCC(=O)O

Key:
[1] = Resistance to protease degradation in rat plasma (RP-HPLC peak); format: in vitro ADME; details: 37° C., 24 hours compared to 0 hours, FIG. 6
Procedure: To confirm that the peptides of the embodiments are resistant to protease degradation compared to VIpep-3, VIpep-3 or representative peptides of the embodiments (Seq-1, Seq-6, Seq-9, or Seq-10) were mixed in rat plasma, and after a certain incubation time, the residual amount of the peptide was evaluated by the presence or absence of peaks on RP-HPLC. To 1 μL of each 10 mM peptide, 20 μL of rat plasma was added, and incubated at 37° C. for an arbitrary time (0 or 24 hours). Then, for VIpep-3, 80% acetonitrile, for the other peptides, 200 μL each of acetonitrile was added, mixed well, placed on ice for 10 minutes, and centrifuged at 15,000 rpm at 4° C. for 10 minutes to remove plasma proteins.

VIPR2 [2] = molecular target: T1, VIPR2 (Homo sapiens, UniProt P41587); assay: Change in intracellular calcium concentration in VIPR2-expressing cells (Fluo-8), peptide co-added with VIP; format: cell-based; design: host or cells: purchased human VIPR2-expressing cell line; details: VIP 150 nM, peptide 750 nM co-added, FIG. 5
T1 sequence (P41587 24-438): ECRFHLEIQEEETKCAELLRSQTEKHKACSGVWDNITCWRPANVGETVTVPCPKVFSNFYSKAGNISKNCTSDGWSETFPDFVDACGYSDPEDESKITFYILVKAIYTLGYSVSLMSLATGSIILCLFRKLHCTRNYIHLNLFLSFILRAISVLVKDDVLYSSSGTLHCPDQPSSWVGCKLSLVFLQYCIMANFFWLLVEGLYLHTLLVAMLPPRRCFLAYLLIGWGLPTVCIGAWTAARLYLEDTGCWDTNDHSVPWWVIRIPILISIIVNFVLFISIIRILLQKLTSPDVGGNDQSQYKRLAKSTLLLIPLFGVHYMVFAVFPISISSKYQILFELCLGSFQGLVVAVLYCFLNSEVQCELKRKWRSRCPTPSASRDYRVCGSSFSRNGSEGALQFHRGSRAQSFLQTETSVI
Procedure: One of the downstream signals of VIPR2 is known to be changes in intracellular calcium concentration. Human VIPR2-expressing cell line (Catalog No. HTS079RTA, manufactured by Eurofins) was treated with Scree Quest™ Fluo-8 No Wash Calcium Assay Kit (Catalog No. 36315, AAT Bioquest) to introduce Fluo-8, an indicator reagent to measure changes in intracellular calcium concentration by fluorescence. The natural ligand VIP (150 nM final concentration) and VIpep-3 (final concentration 750 nM) or representative examples of the peptides of the embodiments (Seq-1, Seq 5-9) (final concentration 750 nM) were co-added and changes in fluorescence intensity were observed over time using fluorescence microscopy. The difference between the fluorescence intensity before the addition of VIP and the strongest fluorescence intensity after the addition of VIP was taken as 100% and compared to the difference in fluorescence intensity when VIpep-3 or the inventive peptide was co-added.

ICR mice = assay: Novel object recognition test; format: in vivo; details: Ro25-1553 0.07 nmol/g mixed with peptide 1 nmol/g, FIG. 9B
Procedure: We evaluated whether the peptide could improve the recognition function to novel objects, which is reduced by the activation of VIPR2. Ro25-1553 (Peptide Institute, Inc.) an analog of VIP and a selective agonist for VIPR2, was dissolved in PBS (0.07 nmol/g body weight), and then mixed at 99:1 with a representative example of the inventive peptide (Seq-10) dissolved in DMSO (1 nmol/g body weight) or DMSO (Vehicle group) (1% final concentration of DMSO). These solutions were administered subcutaneously once daily to male ICR mice on postnatal day 1 for 14 days, the mice were continuously bred and subjected to a novel object recognition test at 8 weeks of age. The novel object recognition test was conducted during the light period (8:00-20:00) according to Non-Patent Literature 12. First, test cages (30 cm×30 cm×35 cm) made of acrylic-modified polyvinyl chloride were placed in a soundproofed laboratory at an illumination level of 30 lux and covered only with wooden sterilized soft chips (Sankyo Lab Service Co.). […] The animals' behavior during the training and test trials was video-recorded, and the search time for each of the two objects was measured. The discrimination index was calculated as the ratio (%) of the search time difference between object c and object a to the total search time in the test trial.

VIPR2 [3] = molecular target: T1, VIPR2; assay: Selective antagonist activity: intracellular calcium change (FLIPR Tetra) in VIPR1-, VIPR2- or PAC1-expressing cells; format: cell-based; design: host or cells: VIPR2-expressing cells
Procedure: A representative example of any concentration of the inventive peptide (Seq-10) was added to cells expressing VIPR1-expressing cells, VIPR2-expressing cells, or PAC1-expressing cells all of which have been transfected with intracellular calcium concentration indicator and incubated for 30 minutes. Then, VIPR1 cells and VIPR 2 cells were treated with VIP (25 nM and 150 nM, respectively), and PAC1 cells were treated with PACAP (35 nM). The change in intracellular calcium concentration for 2 minutes immediately after the addition thereof was measured by FLIPR Tetra. The inhibition rate of the antagonist peptides was calculated, assuming that the change in intracellular calcium concentration when only the ligand for VIP or PACAP was added was defined as 0% inhibition, and the change in intracellular calcium concentration when both the antagonist peptide and the ligand were not added was defined as 100%.

VIPR2 [4] = molecular target: T2, VIPR2 (Mus musculus, UniProt P41588); assay: VIPR2 antagonist activity in vivo: CREB phosphorylation in prefrontal cortex (Western blotting); details: ICR mice 12 days old, male, s.c., Ro25-1553 0.4 nmol/g with peptide 1 or 10 nmol/g, 1 hour, FIG. 8
T2 construct: from tissue; host or cells: prefrontal cortex of ICR mice, 12 days old, male
T2 sequence (P41588 23-437): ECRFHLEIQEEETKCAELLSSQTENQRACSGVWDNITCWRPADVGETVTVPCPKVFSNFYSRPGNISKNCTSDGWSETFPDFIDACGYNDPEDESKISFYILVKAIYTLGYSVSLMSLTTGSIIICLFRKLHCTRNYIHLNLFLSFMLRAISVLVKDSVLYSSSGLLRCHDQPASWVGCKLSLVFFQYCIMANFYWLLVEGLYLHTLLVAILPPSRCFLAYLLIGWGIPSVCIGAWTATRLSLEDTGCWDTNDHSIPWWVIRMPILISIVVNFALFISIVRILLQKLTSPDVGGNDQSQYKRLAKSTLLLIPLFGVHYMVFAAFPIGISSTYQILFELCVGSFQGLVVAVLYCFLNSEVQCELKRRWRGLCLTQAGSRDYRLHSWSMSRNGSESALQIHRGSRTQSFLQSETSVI
Procedure: Ro25-1553 (Peptide Institute, Inc.) which is an analog of VIP and a selective agonist for VIPR2, was dissolved in PBS (0.4 nmol/g body weight), and then mixed at 9:1 with the representative example of the inventive peptide (Seq-10) dissolved in DMSO (1 nmol/g body weight or 10 nmol/g body weight) or DMSO (vehicle group) (at a final concentration of DMSO is 10%). These solutions were administered subcutaneously to ICR mice (12 days old, male). 1 hour later, brains were removed, prefrontal cortex was dissected, and the phosphorylation of intracellular cyclic AMP response sequence-binding protein (CREB) (one of the downstream signals of VIPR2) in the cells was evaluated by Western blotting. The antibodies used for Western blotting were anti-phosphorylated CREB antibody (#9198) and anti-CREB antibody (#9197) purchased from Cell Signaling Technology.

[5] = molecular target: T3, extracellular domain of human VIPR2 (Homo sapiens, UniProt P41587); details: recombinant protein, Non-Patent Literature 8; cited from earlier work
T3 sequence (P41587 24-124 limits assumed): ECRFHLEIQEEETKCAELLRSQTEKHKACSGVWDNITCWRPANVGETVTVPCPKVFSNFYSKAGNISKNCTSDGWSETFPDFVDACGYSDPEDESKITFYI

VIPR2 [6] = molecular target: T1, VIPR2; design: host or cells: VIPR2-expressing cells; details: cellular studies, Non-Patent Literature 8; cited from earlier work

antagonist activity against VIPR2-expressing cells (VIPR2 [3]; summary statement, Seq-10 tested with VIP 150 nM, FLIPR Tetra)	phosphorylation of CREB in prefrontal cortex (VIPR2 [4])	Compound	resistance to protease degradation: peptide-derived RP-HPLC peak after incubation in rat plasma [1]	inhibition of the receptor-activating activity of VIP on VIPR2 (antagonist activity, intracellular calcium) (VIPR2 [2])	recognition of novel objects versus Ro25-1553 alone (discrimination index) (ICR mice; s.c. once daily 14 days from postnatal day 1, test at 8 weeks, p less than 0.001 (Student's t-test))	recognition function compared with normal mice (ICR mice; s.c. once daily 14 days, test at 8 weeks)	antagonist activity against VIP-VIPR2 interaction versus VIP-VIPR1 or PACAP-PAC1 interactions (selectivity) (VIPR2 [3]; peptide preincubated 30 minutes, VIP 25 nM (VIPR1), VIP 150 nM (VIPR2), PACAP 35 nM (PAC1), FIG. 7)	binding to VIPR2 extracellular region/domain [5]	inhibition of VIP and PACAP signaling pathway through VIPR2 (VIPR2 [6])
		CC[C@H](C)[C@H](NC(=O)[C@H](CC(C)C)NC(=O)[C@@H]1CC(=O)NCCCC[C@@H]2NC(=O)[C@@H]3CCCN3C(=O)[C@H](CC(C)C)NC(=O)[C@H](Cc3ccc(O)cc3)N(C)C(=O)CCSCc3cccc(c3)CSC[C@H](NC(=O)[C@H](CC(C)C)NC(=O)[C@H](Cc3ccc(O)cc3)NC2=O)C(=O)N1)C(N)=O [Seq-6, c(Mpa-NmeTyr-Leu-Pro-c[Lys-Tyr-Leu-Cys)-Asp]-Leu-Ile-NH2] ([Mpa][NMeY]LPKYLCDLI-NH2; linker 1-8 via mXylylene; lactam 5-9)	resistance to protease degradation; also recorded: remained almost the same	antagonist activity					
antagonist activity	clearly inhibited	CC[C@H](C)[C@H](NC(=O)[C@H](CC(C)C)NC(=O)[C@@H]1CC(=O)NCCCC[C@@H]2NC(=O)[C@@H]3CCCN3C(=O)[C@H](CC(C)C)NC(=O)[C@H](Cc3ccc(O)cc3)NC(=O)[C@@H]3CCCN3C(=O)[C@@H]3CCCN3C(=O)[C@@H](NC(C)=O)CSSC[C@H](NC(=O)[C@H](CC(C)C)NC(=O)[C@H](Cc3ccc(O)cc3)NC2=O)C(=O)N1)C(N)=O [Seq-10, Ac-c(Cys-Pro-Pro-Tyr-Leu-Pro-c[Lys-Tyr-Leu-Cys)-Asp]-Leu-Ile-NH2] (Ac-CPPYLPKYLCDLI-NH2; disulfide 1-10; lactam 7-11)	resistance to protease degradation; also recorded: remained almost the same		significant improvement	almost the same as that of normal mice	significantly strong against VIP-VIPR2 interaction than those against VIP-VIPR1 or PACAP-PAC1 interactions		
		CC(=O)N[C@H]1CSSC[C@@H](C(=O)N[C@H](C(=O)N[C@@H](CC(C)C)C(=O)N[C@@H](CC(C)C)C(=O)N[C@@H](CC(C)C)C(=O)N[C@@H](CCCNC(=N)N)C(=O)N[C@@H](CO)C(=O)O)[C@@H](C)O)NC(=O)[C@H](CC(C)C)NC(=O)[C@H](CCCNC(=N)N)NC(=O)[C@H](CCCNC(=N)N)NC(=O)[C@@H]2CCCN2C(=O)[C@H](CC(C)C)NC(=O)[C@H](Cc2ccc(O)cc2)NC(=O)[C@@H]2CCCN2C(=O)[C@@H]2CCCN2C1=O [VIpep-3, Ac-c(Cys-Pro-Pro-Tyr-Leu-Pro-Arg-Arg-Leu-Cys)-Thr-Leu-Leu-Leu-Arg-Ser-OH] (Ac-CPPYLPRRLCTLLLRS-OH; disulfide 1-10)	greatly reduced	inhibit the receptor-activating activity of VIP on VIPR2				tightly binds	inhibits
		c(Mpa-NmeTyr-Leu-NmeGly-c(Cys)-Tyr-Leu-Cys)-Dap-Leu-Ile-NH2 ([Mpa][NMeY]L[Sar]CYLC[Dap]LI-NH2; linker (positions not given here) via TBMB; not fully specified (bridges)) [Seq-9, cyclization TBMB(1-5-8)]	resistance to protease degradation; also recorded: remained almost the same	antagonist activity					
		c(Mpa-Pro-Pro-Tyr-Leu-Pro-c[Lys-Tyr-Leu-Cys)-Asp]-Leu-Ile-NH2 ([Mpa]PPYLPKYLCDLI-NH2; disulfide (positions not given here); lactam 7-11; not fully specified (bridges)) [Seq-1, cyclization S-S(1-10)/amide(7-11)]	resistance to protease degradation; also recorded: remained almost the same	antagonist activity; also recorded: inhibit the receptor-activating activity of VIP on VIPR2					
